The results in this text go back to the Deep4Chem optical property database.

This data set in a line: photoluminescence quantum yield (fraction); solvent given as SMILES.

In turn, `COc1ccc(OC)c(C2=C3C=CC(=[N+](C)C)C=C3[Si](C)(C)c3cc(N(C)C)ccc32)c1` had a photoluminescence quantum yield (in O) of 0.025.

On to `FC(F)(F)c1ccccc1B1c2ccccc2Nc2ccccc21`, for which, where the note is “in ClCCl”, the photoluminescence quantum yield was 0.85.

Where the note is “in ClCCl”, `CN(C)c1ccc(/C=C/c2cnc3ccccc3n2)cc1` showed a photoluminescence quantum yield of 0.59.

In the case of `Brc1ccc(-c2nc(-c3ccc(-c4nc(-c5ccc(Br)cc5)c(-c5ccc(Br)cc5)[nH]4)cc3)[nH]c2-c2ccc(Br)cc2)cc1`, the photoluminescence quantum yield (in CS(C)=O) was found to be 0.49.

As to `COc1ccc(-n2nc(C#N)c(N3CCOCC3)n2)cc1`, the photoluminescence quantum yield (in CC#N) was determined as 0.856.

For the compound `COc1ccc(N2c3cc(OC)ccc3N=c3cc4c(cc32)=Nc2cc(C(C)(C)C)cc(C(C)(C)C)c2O4)cc1`, the photoluminescence quantum yield (in CCCCCC) was found to be 0.31.

On to `CC1(C)C2=[N+](CCCCCC(=O)NCCNC(=O)CCCCCN3/C(=C/C=C/C=C/C=C/2)C(C)(C)c2cc(S(=O)(=O)[O-])ccc23)c2ccc(S(=O)(=O)[O-])cc21`, for which the photoluminescence quantum yield amounted to 0.57 (in CO) and 0.33 (in O).

In turn, `c1ccc(-c2nc(-c3ccccc3)c(N(c3ccccc3)c3ccccc3)s2)cc1` gave a photoluminescence quantum yield (in ClC(Cl)Cl) of 0.43.

`Cn1nc(-c2ccc(C#N)cc2)cc1-c1ccccc1` showed a photoluminescence quantum yield (in ClCCl) of 0.7.

On to `CN(C)c1ccc(C(=Cc2ccc(C=O)cc2)c2ccc(N(C)C)cc2)cc1`, for which, under “in C1CCOC1”, the photoluminescence quantum yield was 0.059.

Take `CN(C)c1ccc(C2=Nc3sc4cc(Cl)ccc4[n+]3[B-](F)(F)O2)cc1`: the photoluminescence quantum yield came out at 0.74 (in C1CCOC1); 0.12 (in CC#N); 0.21 (in CC(C)=O); 0.91 (in Cc1ccccc1); 0.78 (in ClCCl).

`CCCCCCN1C(=O)c2cccc3c(-c4ccc(-c5cc(-c6ccc(Cl)cc6)n(-c6ccccc6)n5)s4)ccc(c23)C1=O`: the photoluminescence quantum yield (in ClCCl) was 0.33.

Where the note is “in CCO”, `C=C(C)C(CN1C(=O)c2cccc3c2c(cc2nc(C)oc23)C1=O)OO` (centres undefined) returned a photoluminescence quantum yield of 0.061.

Consider `COCCOc1cc(C=O)c(OCCOC)cc1C=O`, for which the photoluminescence quantum yield was 0.11 (in CC(C)(C)O); 0.1 (in CC(C)CO); 0.1 (in CC(C)O); 0.17 (in CCCCO); 0.19 (in CCCO); 0.18 (in CCO). The photoluminescence quantum yield (in CN(C)C=O) amounted to 0.03; the photoluminescence quantum yield (in CNC=O) came to 0.08; the photoluminescence quantum yield (in CO) was determined as 0.22; the photoluminescence quantum yield (in NC=O) is 0.3; the photoluminescence quantum yield (in O) was found to be 0.54.

Consider `COc1ccc(C2=C3C=CC(C)=[N+]3[B-](F)(F)n3c(C)ccc32)cc1`, for which the photoluminescence quantum yield runs as follows: (in C1CCCCC1) 0.42; (in C1CCOC1) 0.36; (in CC#N) 0.21; (in CCOC(C)=O) 0.3; (in CO) 0.25; (in Cc1ccccc1) 0.52. Besides, the photoluminescence quantum yield (in ClC(Cl)Cl) was 0.46.

Regarding `CC1=[N+]2C(=C(Oc3cc(C)c4c(c3)CC[C@@](C)(CCC[C@H](C)CCC[C@H](C)CCCC(C)C)O4)c3ccc(C)n3[B-]2(F)F)C=C1c1cc2n(c1)[B-](F)(F)[N+]1=CC=CC1=C2c1c(C)cc(C)cc1C`, the photoluminescence quantum yield runs as follows: (in C1CCCCC1) 0.45; (in CCOC(C)=O) 0.11.

In turn, `Fc1c(F)c(-n2c3ccccc3c3ccccc32)c(F)c(-n2c3ccccc3c3ccccc32)c1-c1nnc(-c2ccccc2)o1` registered a photoluminescence quantum yield (in Cc1ccccc1) of 0.08.

`Cc1ccc2ccccc2c1`: the photoluminescence quantum yield (in C1CCCCC1) worked out at 0.52.

Take `C[Si]1(C)O[Si](C)(C)c2cc3nc4ccc(Cl)cc4c(-c4ccccc4)c3cc2[Si](C)(C)O1`: the photoluminescence quantum yield (in ClCCl) was 0.29.

In turn, `c1ccc(-c2cc3cccc[n+]3[b-]3c(-c4cccc5[b-]4[n+]4ccccc4cc5-c4ccccc4)cccc32)cc1` yielded a photoluminescence quantum yield (in C1CCCCC1) of 0.02.

The compound `COc1ccc2oc(=N)c(C#N)cc2c1` came in with a photoluminescence quantum yield (in ClCCl) of 0.062.

Turning to `CC(C)[Si](C#Cc1c2nc3ccccc3nc2c(C#C[Si](C(C)C)(C(C)C)C(C)C)c2nc3c(ccc4cc5ccccc5cc43)nc12)(C(C)C)C(C)C`, the photoluminescence quantum yield (in CCCCCC) worked out at 0.25.

As to `CCn1c2ccccc2c2cc(C#Cc3cc(C#Cc4ccc5c(c4)c4ccccc4n5CC)nc(C#N)n3)ccc21`, the photoluminescence quantum yield turned out to be 0.66 (in C1CCOC1); 0.68 (in CCOC(C)=O); 0.21 (in CN(C)C=O); 0.81 (in Cc1ccccc1); 0.65 (in ClCCl).

As for `CN(C)c1ccc(/C=C2\CC/C(=C\c3ccc(C#N)cc3)C2=O)cc1`, the photoluminescence quantum yield reads like this: (in C1CCOC1) 0.027; (in CC#N) 0.0036; (in CC(C)=O) 0.0095; (in CC(C)O) 0.026; (in CCCCO) 0.017; (in CCCCOC(C)=O) 0.14. The photoluminescence quantum yield (in CCCO) was found to be 0.013; the photoluminescence quantum yield (in CCO) is 0.0061; the photoluminescence quantum yield (in CCOC(=O)c1ccccc1) was found to be 0.18; the photoluminescence quantum yield (in CCOC(C)=O) worked out at 0.09; the photoluminescence quantum yield (in CCOCC) turned out to be 0.074; the photoluminescence quantum yield (in CN(C)C=O) amounted to 0.0066. The photoluminescence quantum yield was 0.0027 (in CO); 0.0074 (in CS(C)=O); 0.05 (in Cc1ccccc1); 0.019 (in ClC(Cl)(Cl)Cl); 0.3 (in ClC(Cl)Cl); 0.17 (in ClCCl). This compound came in with a photoluminescence quantum yield (in Clc1ccccc1Cl) of 0.29; a photoluminescence quantum yield (in O=C1CCCC1) of 0.034; a photoluminescence quantum yield (in S=C=S) of 0.034; a photoluminescence quantum yield (in c1ccccc1) of 0.066; a photoluminescence quantum yield (in c1ccncc1) of 0.051.

The compound `Cc1ccc(-c2ccc(/C=C/c3cccs3)cn2)nc1` had a photoluminescence quantum yield (in CC#N) of 0.042.

Turning to `N#Cc1ccc2c(c1)CCc1nc(-c3ccc([N+](=O)[O-])cc3)c3c(c1-2)CCc1cc(C#N)ccc1-3`, the photoluminescence quantum yield was determined as 0.043 (in C1CCOC1); 0.039 (in CC#N); 0.3 (in CCCCCC); 0.015 (in CCOC(C)=O); 0.01 (in CO); 0.073 (in CS(C)=O). The photoluminescence quantum yield was 0.014 (in Cc1ccccc1) and 0.292 (in ClCCl).

In turn, `Cc1cc(C)c(B(c2ccc(N3c4ccccc4Oc4ccccc43)cc2)c2c(C)cc(C)cc2C)c(C)c1` had a photoluminescence quantum yield (in Cc1ccccc1) of 0.87.

For the compound `COc1cc(OC)cc(C2=C3C(C)=C(I)C(C)=[N+]3[B-](F)(F)n3c(/C=C/c4c[nH]c5ccccc45)c(I)c(C)c32)c1`, the photoluminescence quantum yield reads like this: (in C1CCOC1) 0.2; (in CS(C)=O) 0.17; (in ClCCl) 0.19.

Consider `CN(C)CCN(Cc1c2ccccc2cc2ccccc12)c1ccc([N+](=O)[O-])cn1`, for which the photoluminescence quantum yield is, setting by setting: (in C1CCCCC1) 0.0003; (in C1CCOC1) 0.0009; (in CC#N) 0.0383; (in CC(C)=O) 0.00324; (in CCO) 0.0115; (in CN(C)C=O) 0.0398. Besides, the photoluminescence quantum yield is, setting by setting: (in CO) 0.00453; (in ClC(Cl)Cl) 0.005.

As to `CCCC(=O)c1c(OCOC)c(OCOC)c(C(=O)CCC)c2c1OCO2`, the photoluminescence quantum yield (in CC#N) worked out at 0.41.
